Experimental data published in US8012949B2, “Bisphosphonate compounds and methods with enhanced potency for multiple targets including FPPS, GGPPS, and DPPS” (The Board of Trustees of the University of Illinois, priority 2004, dated 2011).
Like-named read-outs stand apart in the source and are kept apart here.

Tests used:
[1] = biological target: T1, human recombinant geranylgeranyl diphosphate synthase (hGGPPS) (Homo sapiens, UniProt O95749); assay: Human recombinant GGPPS inhibition (radiometric assay); format: biochemical; conditions: Table 1, experimental
T1 construct: made in house
T1 sequence (O95749 1-300): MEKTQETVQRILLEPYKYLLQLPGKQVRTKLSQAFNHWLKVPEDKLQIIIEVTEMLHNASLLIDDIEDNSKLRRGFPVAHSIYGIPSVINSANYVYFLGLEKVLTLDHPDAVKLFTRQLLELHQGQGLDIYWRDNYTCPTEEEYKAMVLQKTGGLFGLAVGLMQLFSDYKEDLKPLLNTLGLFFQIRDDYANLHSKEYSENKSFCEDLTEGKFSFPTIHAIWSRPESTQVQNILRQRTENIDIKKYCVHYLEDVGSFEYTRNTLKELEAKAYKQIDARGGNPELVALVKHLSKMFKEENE
Experimental: (§1) To test our polypharmaceutical hypothesis, we expressed three enzymes: human FPPS, GGPPS and DPPS, and tested each for their inhibition by a series of bisphosphonates.
Human recombinant GGPPS inhibition. The purification of human recombinant geranylgeranyl diphosphate synthase (hGGPPS) followed the protocol reported previously^2. GGPPS inhibition by bisphosphonates was determined using the radiometric assay reported previously^2 with slight modification. […] IPP and incubated at 37° C. for 20 min. The reaction was terminated by the addition of 75 μL of HCl/MeOH. Following a second 20 min incubation at 37° C. to effectively hydrolyze the allylic pyrophosphates, the reaction mixtures were neutralized by the addition of 75 μL of 6 N NaOH and extracted with 500 μL of hexane. 200 μL of the organic phase was transferred to a scintillation vial for counting. The IC50 values were obtained by fitting the data to the dose-response curve in Origin 6.1 (OriginLab Corp., Northampton, Mass., www.OriginLab.com).

[2] = biological target: T2, human FPPS (Homo sapiens, UniProt P14324); assay: human FPPS enzyme inhibition; format: biochemical; conditions: for IC50: Table 9, read-out: H. sapiens FPPS IC50
T2 construct: made in house
T2 sequence (P14324 1-419): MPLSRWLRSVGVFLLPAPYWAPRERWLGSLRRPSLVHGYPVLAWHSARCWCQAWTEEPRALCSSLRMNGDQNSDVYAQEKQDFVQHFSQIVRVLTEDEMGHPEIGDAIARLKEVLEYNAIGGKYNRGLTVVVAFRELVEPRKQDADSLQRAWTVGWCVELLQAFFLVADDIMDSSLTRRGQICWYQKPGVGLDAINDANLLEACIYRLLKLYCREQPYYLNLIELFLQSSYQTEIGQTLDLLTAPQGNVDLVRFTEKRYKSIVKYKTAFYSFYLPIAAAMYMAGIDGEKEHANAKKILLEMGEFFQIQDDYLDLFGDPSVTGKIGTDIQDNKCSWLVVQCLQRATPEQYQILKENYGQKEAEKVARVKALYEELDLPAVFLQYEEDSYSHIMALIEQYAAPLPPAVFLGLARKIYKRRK
Text: as §1

[3] = system: NCI-H460 (lung large cell); assay: NCI-H460 cell growth inhibition (MTT); format: cell-based, human; conditions: Table 1, experimental
Text: (§2) Cell Growth Inhibition Assays. […] A broth microdilution method was used to determine IC50 values for growth inhibition by each bisphosphonate. […] NBPs were typically initially dissolved in H2O (0.01 M) while NNBPs were typically dissolved in DMSO (0.01 M).
(§3) GraphPad PRISM® version 4.0 software for windows (GraphPad Software Inc., San Diego, Calif., www.graphpad.com) was used to fit the data to a rectangular hyperbolic function: I=(ImaxC)/(IC50+C); […]

[4] = biological target: T3, human DPPS (Homo sapiens, UniProt Q5T2R2); assay: human DPPS enzyme inhibition; format: biochemical
T3 construct: made in house
T3 sequence (Q5T2R2 1-415): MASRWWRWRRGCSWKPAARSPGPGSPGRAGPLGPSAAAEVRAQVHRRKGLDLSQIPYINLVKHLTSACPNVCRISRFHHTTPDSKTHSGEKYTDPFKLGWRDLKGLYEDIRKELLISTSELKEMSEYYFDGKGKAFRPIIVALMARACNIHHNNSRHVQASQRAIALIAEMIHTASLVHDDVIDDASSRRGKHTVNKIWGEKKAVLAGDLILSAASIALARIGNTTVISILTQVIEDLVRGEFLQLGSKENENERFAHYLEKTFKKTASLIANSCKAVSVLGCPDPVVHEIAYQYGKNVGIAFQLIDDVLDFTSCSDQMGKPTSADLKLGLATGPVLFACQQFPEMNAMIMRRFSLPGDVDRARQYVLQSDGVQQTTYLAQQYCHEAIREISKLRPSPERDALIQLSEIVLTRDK
T3 sequence (Q86YH6 1-399 partner): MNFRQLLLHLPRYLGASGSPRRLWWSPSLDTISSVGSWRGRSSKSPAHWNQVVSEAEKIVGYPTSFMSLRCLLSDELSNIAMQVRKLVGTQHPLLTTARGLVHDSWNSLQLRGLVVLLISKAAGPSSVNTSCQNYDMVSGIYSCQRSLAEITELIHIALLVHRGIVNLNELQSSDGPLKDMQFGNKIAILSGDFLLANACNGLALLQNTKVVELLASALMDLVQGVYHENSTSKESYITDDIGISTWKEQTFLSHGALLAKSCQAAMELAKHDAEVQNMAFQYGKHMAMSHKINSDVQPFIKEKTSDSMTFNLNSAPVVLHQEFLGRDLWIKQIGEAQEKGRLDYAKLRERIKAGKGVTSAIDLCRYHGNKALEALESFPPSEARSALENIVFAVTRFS
Text: as §1

[5] = system: MCF-7 (breast adenocarcinoma); assay: MCF-7 cell growth inhibition (MTT), incl. FOH/GGOH rescue; format: cell-based, human
Text: as §2
GraphPad PRISM® version 4.0 software for windows (GraphPad Software Inc., San Diego, Calif., www.graphpad.com) was used to fit the data to a rectangular hyperbolic function: I=(ImaxC)/(IC50+C);
For the “rescue” experiments, stock solutions of FOH or GGOH were prepared (in ethanol) and the requisite amounts added to the incubation media to produce a fixed 20 μM concentration.

[6] = system: SF-268 (central nervous system glioblastoma); assay: SF-268 cell growth inhibition (MTT); format: cell-based, human; conditions: Table 1, experimental
Text: as §2, §3

[7] = system: Vγ2Vδ2 T cells; assay: γδ T cell activation (TNF-α release and proliferation); format: cell-based, human
Experimental: γδ T Cell Assays. Vγ2Vδ2 T cell TNF-α release and proliferation were performed basically as described previously^1. Briefly, to measure bioactivity for Vγ2Vδ2 T cells, the CD4^+ JN.24, CD4^+ HF.2, CD8αα^+ 12G12, or the CD4^−8^− HD.108 Vγ2Vδ2 T cell clones were stimulated with phosphoantigens in the presence of CP.EBV (an EBV transformed B cell line) for CD4^+ clones or Va-2 (a transformed fibroblast) for CD8αα^+ and CD4^−8^− clones. CP.EBV and Va-2 were fixed with 0.05% glutaraldehyde (EM grade, Sigma, Mo.) for use as APCs. […] Curve fitting minima for each experiment (e.g. TNF-α release from JN.24 cells) were determined using the Global Fitting technique, as implemented in Prism 4.0. Curve fitting maxima were optimized for each individual compound without the use of any constraints.

[8] = system: T. brucei FPPS; assay: T. brucei FPPS inhibition; format: biochemical, Trypanosoma brucei; conditions: Table 9
[9] = Adsorption onto bone in vivo
Text: (§4) A potential drawback to the use of bisphosphonates in treating non-bone resorption diseases is expected to be that they would be rapidly adsorbed onto bone. […]

[10] = system: MDA-MB-231 cells; assay: Matrigel invasion assay; format: cell-based, human
Text: Tumor cell invasiveness and in vivo results. […] .

[11] = system: SK-ES-1 sarcoma cells; assay: SK-ES-1 sarcoma mouse xenograft; conditions: daily intraperitoneal 5 μg, athymic nude mice, SK-ES-1 xenograft
[12] = system: bone resorption; assay: Bone resorption IC50
Text: as §4

O=P([O-])(O)C(C[n+]1cccc(-c2ccccc2)c1)P(=O)(O)O (stereo not shown) [BPH-472]
GGPPS pKi (M) [1]: 6.6 M
FPPS pKi (M) ([2]; Table 1, experimental): 8.6 M
NCI-H460 pIC50 (M) [3]: 4.3 M
DPPS pKi ([4]; Table 1, experimental): 7.1
MCF-7 pIC50 (M) ([5]; Table 1, experimental): 4.4 M
MCF-7 Cell pIC50 (M) ([5]; Table 2, -log10(value, M)): 4.46 M
SF-268 pIC50 (M) [6]: 4.3 M
γδ T Cell Avg pED50 (M) ([7]; Table 2, -log10(value, M)): 4.07 M

C[S+](C)CC(O)(P(=O)(O)O)P(=O)(O)O [BPH-527, (2-Hydroxy-2,2-bis-phosphono-ethyl)-dimethyl-sulfonium]
IC50 [2]: 1.03 µM
MCF-7 Cell pIC50 (M) ([5]; Table 2, -log10(value, M)): 3.36 M
γδ T Cell Avg pED50 (M) ([7]; Table 2, -log10(value, M)): 3.87 M
IC50 [8]: 0.78 µM

C[P+](C)(C)CC(O)(P(=O)([O-])O)P(=O)(O)O (stereo not shown) [BPH-536]
IC50 [2]: 12.1 µM
MCF-7 Cell pIC50 (M) ([5]; Table 2, -log10(value, M)): 3.24 M
γδ T Cell Avg pED50 (M) ([7]; Table 2, -log10(value, M)): 3.72 M
IC50 [8]: 26.1 µM

C[S+](C)CCC(O)(P(=O)([O-])O)P(=O)(O)O (stereo not shown) [BPH-540]
IC50 [2]: 9 µM
MCF-7 Cell pIC50 (M) ([5]; Table 2, -log10(value, M)): 2.68 M
γδ T Cell Avg pED50 (M) ([7]; Table 2, -log10(value, M)): 3.59 M
IC50 [8]: 11.3 µM

C[As+](C)(C)CC(O)(P(=O)([O-])O)P(=O)(O)O (stereo not shown) [BPH-560]
IC50 [2]: 1.13 µM
MCF-7 Cell pIC50 (M) ([5]; Table 2, -log10(value, M)): 2.71 M
γδ T Cell Avg pED50 (M) ([7]; Table 2, -log10(value, M)): 3.37 M
IC50 [8]: 275 µM

O=P(O)(O)C(O)(Cc1cccc(-c2cccc(NS(=O)(=O)c3ccc4ccccc4c3)c2)c1)P(=O)(O)O [BPH-675, 1-Hydroxy-2-[3′-(Naphthalene-2-sulfonylamino)-biphenyl-3-yl]ethylidene-1,1-bisphosphonic acid]
effect on FPPS [2]: no effect
FPPS pKi (M) ([2]; Table 1, experimental): 5.9 M
NCI-H460 pIC50 (M) [3]: 5.3 M
effect on DPPS [4]: no effect
DPPS pKi ([4]; Table 1, experimental): 6.5
IC50 ([5]; FIG. 2A, read-out: IC50, MCF-7 tumor cell growth inhibition): 5 µM
rescue from growth inhibition by geranylgeraniol (GGOH) ([5]; GGOH 20 μM): essentially fully rescued
MCF-7 pIC50 (M) ([5]; Table 1, experimental): 5.2 M
adsorption onto bone in vivo [9]: only very weakly adsorbed
SF-268 pIC50 (M) [6]: 5.2 M
γδ T cell activation [7]: no effect at all

N=C(N)NCC(O)(P(=O)(O)O)P(=O)(O)O [BPH-678]
FPPS pKi (M) ([2]; Table 1, experimental): 7.9 M
IC50 [2]: 1.25 µM
NCI-H460 pIC50 (M) [3]: 4.7 M
DPPS pKi ([4]; Table 1, experimental): 7.4
MCF-7 pIC50 (M) ([5]; Table 1, experimental): 4.7 M
MCF-7 Cell pIC50 (M) ([5]; Table 2, -log10(value, M)): 5.37 M
SF-268 pIC50 (M) [6]: 4.6 M
γδ T Cell Avg pED50 (M) ([7]; Table 2, -log10(value, M)): 4.22 M
IC50 [8]: 25.6 µM

O=P([O-])(O)C(O)(C[n+]1cccc(-c2c[nH]cn2)c1)P(=O)(O)O (stereo not shown) [BPH-679]
GGPPS pKi (M) [1]: 5.0 M
FPPS pKi (M) ([2]; Table 1, experimental): 8.2 M
NCI-H460 pIC50 (M) [3]: 4.3 M
DPPS pKi ([4]; Table 1, experimental): 6
MCF-7 pIC50 (M) ([5]; Table 1, experimental): 4.4 M
MCF-7 Cell pIC50 (M) ([5]; Table 2, -log10(value, M)): 4.65 M
SF-268 pIC50 (M) [6]: 4.5 M
γδ T Cell Avg pED50 (M) ([7]; Table 2, -log10(value, M)): 3.34 M

CCCCC[S+](C)CC(P(=O)([O-])O)P(=O)(O)O (stereo not shown) [BPH-684]
Ki ([1]; read-out: GGPPS pKi (converted)): 0.251 µM
Ki ([2]; Table 1, experimental, read-out: FPPS pKi (converted)): 0.01 µM
IC50 ([3]; Homo sapiens, NCI-H460, read-out: NCI-H460 pIC50 (converted)): 158 µM
Ki ([4]; Table 1, experimental, read-out: DPPS_pKi (converted)): 0.1 µM
IC50 ([5]; Homo sapiens, MCF7, Table 1, experimental, read-out: MCF-7 pIC50 (converted)): 251 µM
IC50 ([5]; Homo sapiens, MCF7, Table 2, -log10(value, M), read-out: MCF-7 Cell pIC50 (converted)): 129 µM
IC50 ([6]; Homo sapiens, SF-268, read-out: SF-268 pIC50 (converted)): 200 µM
EC50 ([7]; Homo sapiens, T-cell, Table 2, -log10(value, M), read-out: γδ T Cell Avg pED50 (converted)): 126 µM

CCCCCCCCCCCCOc1ccc[n+](CC(P(=O)(O)O)P(=O)(O)O)c1 [BPH-716]
IC50 [10]: ~0.03 µM
fold more inhibitory than zoledronate, Matrigel invasion ([10]; versus zoledronate): about 1000 fold
γδ T cell activation EC50, times more active than Phosphostim ([7]; versus Phosphostim (bromohydrin of IPP)): ~2 ×
γδ T cell activation, times more active than the most potent conventional bisphosphonates ([7]; versus most potent conventional bisphosphonates): ~100 ×

O=P(O)(O)C(O)(Cn1ccnc1)P(=O)(O)O [zoledronate, reference compound]
IC50 [4]: ~5 µM
effect on DPPS [4]: inhibited
IC50 ([5]; Homo sapiens, MCF7, FIG. 2A, read-out: IC50, MCF-7 tumor cell growth inhibition): ~15 µM
IC50 ([10]; Homo sapiens): ~40 µM
reduction in tumor cell growth [11]: significant (p<0.01) reduction in tumor cell growth versus control
IC50 [12]: ~0.07 µM
